Assay results as given in patent publication US20230115176A1 (Ra Pharmaceuticals, Inc., priority 2019, published 2023).
Converted amounts (≈) assume the structure as drawn.

Experiments:
[1] = Kinetic solubility in PBS pH 7.4, HPLC-UV (Example 21, Table 27); type: physicochemical; details: phosphate buffered saline, aqueous buffer, kinetic from dmso stock, 0.5 M PBS, shaken minimum 24 h at approximately 25° C., HPLC-UV 270 nm
Method in brief: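 10 mM DMSO stock diluted into 0.05 M PBS pH 7.4 (5% DMSO final), in triplicate, shaken ≥24 h at ~25 °C, then filtered by centrifugation. Supernatant concentration by HPLC-UV at 270 nm against external DMSO standards (15.6–500.0 μM).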

[2] = Permeability assay, unidirectional transport, Papp (Example 30, Table 34); type: in vitro ADME, canine; details: dog, pH 7.4; MDCK-WT cell monolayers, A-to-B, 3 μM test compound, 37° C., duplicate determinations
Description: Permeability assays were carried out to provide a preliminary indication of suitability for oral dosing and compound permeability across the blood brain barrier. Unidirectional and bidirectional compound transport across Madin Darby canine kidney (MDCK) cell monolayers was assessed. For unidirectional transport assessment, transport across MDCK wild type (MDCK-WT) cell monolayers was assessed. For bidirectional transport, transport across MDCK-MDR1 cell monolayers was assessed. MDCK-MDR1 cells express the MDR1 gene encoding the P-glycoprotein (P-gp) efflux protein.
MDCK-WT and MDCK-MDR1 cells were plated onto permeable polycarbonate supports in 12-well Costar transwell plates and allowed to grow and differentiate for 3 days. After 3 days in culture, the culture medium (DMEM supplemented with 10% FBS) was removed from both sides of the transwell inserts and cells were rinsed with warm HBSS. After the rinse step, the chambers were filled with warm transport buffer (HBSS containing 10 mM HEPES, 0.25% BSA, pH 7.4) and the plates were pre-incubated at 37° C. for 30 minutes prior to TEER (Trans Epithelial Electric Resistance) measurements.
The buffer in the donor chamber (apical side for A-to-B assay, basolateral side for B-to-A assay) was removed and replaced with the working solution (3 μM test compound and 10 μM for control compounds in transport buffer). The plates were then placed at 37° C. under light agitation. At designated time points (30, 60 and 90 min), an aliquot of transport buffer from the receiver chamber was removed and replenished with fresh transport buffer. Samples were quenched with ice-cold ACN containing internal standard and then centrifuged to pellet protein. Resulting supernatants were further diluted with 50/50 ACN/H2O (Atenolol diluted in just water) and submitted for LC-MS/MS analysis. Apparent permeability (Pap) values were calculated from duplicate determinations. Atenolol and propranolol were tested as low and […] permeability references.
Papp values indicate extent of compound permeation across monolayers.

[3] = biological target: T1, Human C5 (Homo sapiens, UniProt P01031); assay: Red blood cell (RBC) hemolysis assay, luminescent (Example 13, Table 22); type: cell-based; details: sheep EA cells, […] C5-depleted human serum, 0.5 nM human C5, 1 hour 37° C., luminescence
T1 construct: purchased Complement Technology
From the text: Compound CU0136 is a racemic mixture of Compound CU0186 and CU0187. Numbers in parenthesis following compound numbers indicate alternate enantiomers (as distinguished by retention time during chromatographical separation).

[4] = biological target: T2, human C5 complement protein (Homo sapiens, UniProt P01031); assay: Surface plasmon resonance (SPR), immobilized human C5, 37° C. (Example 18, Table 24); type: binding; details: lowest value obtained where a range of concentrations was analyzed
[5] = biological target: T1, Human C5; assay: Red blood cell (RBC) hemolysis assay, luminescent (Example 28, Table 32); type: cell-based; details: sheep EA cells, 1.5% C5-depleted human serum, 0.5 nM human C5, 1 hour at 37° C., luminescence (Table 32)
Description: Sheep red blood cells coated with rabbit anti-sheep erythrocyte antiserum (EA cells; Complement Technology, Tyler, Tex.) were used to assay compound inhibitory activity of the classical complement activation pathway. Briefly, the EA cells were washed once and resuspended in the same volume of GVB++ buffer (Complement Technology, Tyler, Tex.). 25 μL of EA cells were then distributed into each well of 384-well tissue culture plates using Apricot iPipette Pro (Apricot Designs; Covina, Calif.). Compounds were tested in 10 points of final concentrations ranging from 16.67 μM to 1.65 μM in a 6-fold titration series. Compounds were dispensed into 384-well plates from 6.7 mM and 3.35 μM DMSO working stocks using an HP Digital Dispenser (HP; Corvallis, Oreg.). The reactions also contained 1.5% (v/v) C5-depleted human serum (Complement Technology). Hemolysis was induced by addition of human C5 (Complement Technology) at a concentration of 0.5 nM and plates were incubated for 1 hour at 37° C. in a cell culture incubator. The extent of hemolysis was measured by ability of released hemoglobin to catalyze luminol in the presence of hydrogen peroxide. Luminescence was then measured using a plate reader. Luminescence measurements were used to prepare a dose-response curve. From the curve, the half maximal inhibitory concentration (IC50) for each compound was determined, where the IC50 represents the concentration of each compound needed to reduce red blood cell hemolysis by half.

[6] = biological target: T2, human C5 complement protein; assay: Surface plasmon resonance (SPR), immobilized human C5, 37° C. (Example 27, Table 31); type: binding; details: lowest value obtained where a range of concentrations was analyzed (Table 31)

T1 sequence (P01031 19-1676): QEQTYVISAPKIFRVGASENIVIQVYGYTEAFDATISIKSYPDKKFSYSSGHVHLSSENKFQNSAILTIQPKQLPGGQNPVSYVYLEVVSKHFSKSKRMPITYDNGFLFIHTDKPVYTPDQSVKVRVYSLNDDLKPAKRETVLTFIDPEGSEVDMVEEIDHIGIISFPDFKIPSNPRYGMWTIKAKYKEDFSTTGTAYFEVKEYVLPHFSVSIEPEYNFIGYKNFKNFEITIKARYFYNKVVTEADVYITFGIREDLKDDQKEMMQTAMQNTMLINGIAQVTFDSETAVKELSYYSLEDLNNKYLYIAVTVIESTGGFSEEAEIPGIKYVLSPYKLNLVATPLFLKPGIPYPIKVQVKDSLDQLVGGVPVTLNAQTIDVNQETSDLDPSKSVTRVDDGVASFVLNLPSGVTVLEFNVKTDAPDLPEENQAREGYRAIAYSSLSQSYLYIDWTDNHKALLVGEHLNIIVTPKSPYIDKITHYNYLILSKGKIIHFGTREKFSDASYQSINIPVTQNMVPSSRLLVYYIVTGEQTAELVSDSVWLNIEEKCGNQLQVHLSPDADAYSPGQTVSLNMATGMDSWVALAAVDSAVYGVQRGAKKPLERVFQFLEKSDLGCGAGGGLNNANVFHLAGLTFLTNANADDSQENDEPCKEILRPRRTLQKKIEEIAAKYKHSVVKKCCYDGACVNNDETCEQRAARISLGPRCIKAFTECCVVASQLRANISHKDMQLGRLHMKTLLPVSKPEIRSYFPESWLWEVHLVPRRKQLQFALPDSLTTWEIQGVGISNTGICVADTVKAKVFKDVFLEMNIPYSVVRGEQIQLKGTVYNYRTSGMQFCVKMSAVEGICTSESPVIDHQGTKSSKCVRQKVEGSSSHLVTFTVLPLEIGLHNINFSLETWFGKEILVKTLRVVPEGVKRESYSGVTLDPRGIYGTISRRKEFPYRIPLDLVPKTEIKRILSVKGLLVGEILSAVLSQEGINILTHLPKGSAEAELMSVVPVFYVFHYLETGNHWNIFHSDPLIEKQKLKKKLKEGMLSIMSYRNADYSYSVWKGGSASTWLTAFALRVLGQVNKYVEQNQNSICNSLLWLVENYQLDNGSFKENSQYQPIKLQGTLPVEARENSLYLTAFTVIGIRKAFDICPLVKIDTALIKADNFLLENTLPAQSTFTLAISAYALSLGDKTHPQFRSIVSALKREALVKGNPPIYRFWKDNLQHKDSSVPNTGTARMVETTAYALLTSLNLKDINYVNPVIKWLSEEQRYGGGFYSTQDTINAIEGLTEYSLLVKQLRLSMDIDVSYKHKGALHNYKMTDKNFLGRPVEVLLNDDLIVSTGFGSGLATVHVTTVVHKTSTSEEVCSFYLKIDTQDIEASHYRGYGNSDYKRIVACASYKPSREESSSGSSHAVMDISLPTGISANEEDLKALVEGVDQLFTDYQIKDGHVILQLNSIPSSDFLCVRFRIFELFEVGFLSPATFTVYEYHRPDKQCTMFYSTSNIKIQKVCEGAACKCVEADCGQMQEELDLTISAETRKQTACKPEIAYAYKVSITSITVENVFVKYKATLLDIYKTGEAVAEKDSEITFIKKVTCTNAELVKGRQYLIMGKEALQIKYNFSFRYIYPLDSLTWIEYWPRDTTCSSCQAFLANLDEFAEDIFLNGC
T2 sequence (P01031 19-1676): as above

SMILES | solubility kinetic [1] [µM] | Papp A→B at 3 μM [2] [×10⁻⁶ cm/s] | IC50 [3] [nM] | Kd [4] [nM] | IC50 [5] [nM] | Kd [6] [nM]
CCCCCOc1cc(N2CCCN(Cc3ccc(CC(=O)N4CCOC(CN(C)C)C4)cc3OC)C2=O)ccc1OC (racemic) [CU0136] | 479 (≈ 286 µg/mL) | 2.4 | 12.5 | – | – | –
COc1cc(CC(=O)N2CCOCC2)ccc1CN1CCCN(c2ccc(OC)c(OCCCC3CC3)c2)C1=O [CU0511] | 310 (≈ 171 µg/mL) | 16.6 | – | 0.47 | – | –
CCCCCOc1cc(N2CCCN(Cc3ccnc4c3c(Cl)cn4C3CCOCC3)C2=O)ccc1OC [CU0513] | < 10 | 9.6 | – | – | – | –
CCCCCOc1cc(N2CCCN(Cc3ccnc4c3c(Cl)cn4CC(=O)N3CC(O)C3)C2=O)ccc1OC [CU0518] | 47 (≈ 26.8 µg/mL) | 1.1 | – | 0.82 | – | –
CCCCCOc1cc(N2CCCN(Cc3ccnc4c3c(Cl)cn4CC(=O)N3CC[C@@H](N(C)C)C3)C2=O)ccc1OC [CU0520] | 366 (≈ 224 µg/mL) | 3.9 | – | – | – | –
CCCCCOc1cc(N2CCCN(Cc3ccnc4c3c(Cl)cn4CC(=O)N3CC[C@H](N(C)C)C3)C2=O)ccc1OC [CU0521] | 413 (≈ 252 µg/mL) | 3.9 | – | – | – | –
COc1ccc(N2CCCN(Cc3ccnc4c3c(Cl)cn4CC(=O)N3CCOC(CN(C)C)C3)C2=O)cc1OCCCC1CC1 (centres unmarked) [CU0523] | 486 (≈ 317 µg/mL) | 0.7 | – | – | – | –
CCCCCOc1cc(N2CCCN(Cc3ccnc4c3c(Cl)cn4CC(=O)N3CCOCC3)C2=O)ccc1OC [CU0526] | < 10 | 16.8 | – | 0.052 | – | –
CCCCCOc1cc(N2CCCN(Cc3ccnc4c3c(Cl)cn4CC(=O)N3CCO[C@H](CN(C)C)C3)C2=O)ccc1OC [CU0533] | 294 (≈ 189 µg/mL) | 1.7 | – | 0.056 | – | –
CCCCCOc1cc(N2CCCN(Cc3ccnc4c3c(Cl)cn4CC(=O)N3CC[C@@H](OC)C3)C2=O)ccc1OC [CU0534] | 85 (≈ 50.8 µg/mL) | 17.4 | – | 0.363 | – | –
COc1cc(CC(=O)N2CC[C@H](N(C)C)C2)ccc1CN1C(=O)N(c2ccc(OC)c(OCCCC3CC3)c2)CC[C@@H]1C [SC0101] | – | 4.7 | – | – | 0.9 | –
COc1cc(Cc2ccncn2)ccc1CN1C(=O)N(c2ccc(OC)c(OCCCC3CC3)c2)CC[C@@H]1C [SC0102] | – | 18.2 | – | – | 0.9 | –
CCCCCOc1cc(N2CC[C@H](C)N(Cc3cccc4c3c(C)cn4CC(=O)N3CCCOCC3)C2=O)ccc1OC [SC0103] | 24 (≈ 14.2 µg/mL) | – | – | – | 1 | 0.08
CCCCCOc1cc(N2CC(CO)CN(Cc3ccc(CNC(=O)c4cocn4)cc3OC)C2=O)ccc1OC (centres unmarked) [SC0104] | < 10 | – | – | – | 1.1 | 0.89
CCCCCOc1cc(N2CC[C@H](C)N(Cc3cccc4c3c(C)cn4CC(=O)N(C)C3CCN(CC)C3)C2=O)ccc1OC (some centres unmarked) [SC0105] | 399 (≈ 247 µg/mL) | – | – | – | 1.1 | 0.08
CCCCCOc1cc(N2CC[C@H](C)N(Cc3ccnc4c3c(Cl)cn4CC(=O)N3CCNC(=O)C3)C2=O)ccc1OC [SC0106] | 119 (≈ 72.7 µg/mL) | – | – | – | 1.1 | 0.08
CCCCCOc1cc(N2CC[C@H](C)N(Cc3cccc4c3c(C)cn4CC(=O)N(C)C)C2=O)ccc1OC [SC0107] | 52 (≈ 27.8 µg/mL) | – | – | – | 1.1 | 0.36
CCCCCOc1cc(N2CC[C@H](C)N(Cc3ccnc4c3c(Cl)cn4CC(=O)N(C)C)C2=O)ccc1OC [SC0108] | 141 (≈ 78.4 µg/mL) | 21.7 | – | – | – | –
CCCCCOc1cc(N2CC[C@H](C)N(Cc3ccnc4c3c(Cl)cn4CC(=O)N3CC(C)(O)C3)C2=O)ccc1OC [SC0111] | – | 2.5 | – | – | 1.3 | –
COc1cc(CC(=O)N[C@H]2CCNC2)ccc1CN1C(=O)N(c2ccc(OC)c(OCCCC3CC3)c2)CC[C@@H]1C [SC0114] | 252 (≈ 142 µg/mL) | 0.1 | – | – | 1.3 | –
COc1ccc(N2CC[C@H](C)N(Cc3cccc4c3c(Cl)cn4CC(=O)N3CCOCC3)C2=O)cc1OCCCC1CC1 [SC0115] | < 10 | – | – | – | 1.4 | 0.18

SMILES | solubility kinetic [1] [µM] | Papp A→B at 3 μM [2] [×10⁻⁶ cm/s] | IC50 [3] [nM] | Kd [4] [nM] | IC50 [5] [nM] | Kd [6] [nM]
COc1ccc(N2CC[C@H](C)N(Cc3cccc4c3c(Cl)cn4CC(=O)N(C)C)C2=O)cc1OCCCC1CC1 [SC0116] | < 10 | – | – | – | 1.4 | 0.02
CCCCCOc1cc(N2CC[C@H](C)N(Cc3ccnc4c3c(Cl)cn4CC(=O)N3CC(N4CCOCC4)C3)C2=O)ccc1OC [SC0117] | – | 12.6 | – | – | 1.4 | –
COc1cc(CC(=O)N[C@H]2CN(C)C[C@H]2F)ccc1CN1C(=O)N(c2ccc(OC)c(OCCCC3CC3)c2)CC[C@@H]1C [SC0123] | – | 4.8 | – | – | 1.5 | –
COc1ccc(N2CC[C@H](C)N(Cc3cccc4c3c(Cl)cn4CC(=O)N(C)C)C2=O)cc1OCCCC1CCC1 [SC0125] | – | – | – | – | 1.6 | 0.09
COc1cc(CC(=O)N2CCO[C@H](CN(C)C)C2)ccc1CN1C(=O)N(c2ccc(OC)c(OCCCC3CC3)c2)CC[C@@H]1C [SC0134] | 266 (≈ 166 µg/mL) | 2.2 | – | – | 1.8 | –
CCN1CC[C@@H](N(C)C(=O)Cc2ccc(CN3C(=O)N(c4ccc(OC)c(OCCCC5CC5)c4)CC[C@@H]3C)c(OC)c2)C1 [SC0144] | – | 3 | – | – | 2.1 | –
COc1cc(CC(=O)N2CCO[C@@H](CN(C)C)C2)ccc1CN1C(=O)N(c2ccc(OC)c(OCCCC3CC3)c2)CC[C@@H]1C [SC0146] | 486 (≈ 303 µg/mL) | 2.6 | – | – | 2.1 | –
CCCCCOc1cc(N2CC[C@H](C)N(Cc3ccnc4c3c(Cl)cn4CC(=O)N[C@H]3CCN(C)C3)C2=O)ccc1OC [SC0147] | – | 0.7 | – | – | 2.2 | –
CCN1CC[C@H](N(C)C(=O)Cc2ccc(CN3C(=O)N(c4ccc(OC)c(OCCCC5CC5)c4)CC[C@@H]3C)c(OC)c2)C1 [SC0149] | – | 3.5 | – | – | 2.2 | –
CCCCCOc1cc(N2CC[C@H](C)N(Cc3ccnc4c3c(Cl)cn4CC(=O)N3CC(N(C)C)C3)C2=O)ccc1OC [SC0155] | – | 9.9 | – | – | 2.6 | –
CCCCCOc1cc(N2CC[C@H](C)N(Cc3ccnc4c3c(Cl)cn4CC(=O)N3CCOC(CN(C)C)C3)C2=O)ccc1OC (some centres unmarked) [SC0156] | 348 (≈ 228 µg/mL) | 1.3 | – | – | 2.6 | –
CCCCCOc1cc(N2CC(C)CN(Cc3ccc(CNC(=O)c4cnco4)cc3OC)C2=O)ccc1OC (centres unmarked) [SC0159] | – | – | – | – | 2.7 | 0.4
COc1ccc(N2CC[C@H](C)N(Cc3cccc4c3ccn4CC(=O)N3CCOCC3)C2=O)cc1OCCCC1CC1 [SC0164] | 426 (≈ 245 µg/mL) | 14.3 | – | – | 2.9 | –
CCCCCOc1cc(N2CC[C@H](C)N(Cc3cccc4c3ccn4CC(=O)N(C)CC#N)C2=O)ccc1OC [SC0168] | – | – | – | – | 3.3 | 0.79
CCCCCOc1cc(N2CC[C@H](C)N(Cc3cccc4c3c(Cl)cn4CC3=NCCN3C)C2=O)ccc1OC [SC0169] | – | 1.8 | – | – | 3.5 | –
CCCCCOc1cc(N2CC(C)CN(Cc3ccc(CNC(=O)c4cocn4)cc3OC)C2=O)ccc1OC (centres unmarked) [SC0170] | – | – | – | – | 3.7 | 0.77
CCCCCOc1cc(N2CC[C@H](C)N(Cc3cccc4c3ccn4CC(=O)N3CCO[C@@H](CN(C)C)C3)C2=O)ccc1OC [SC0171] | 356 (≈ 221 µg/mL) | 2 | – | – | 3.7 | –
CCCCCOc1cc(N2CC[C@H](C)N(Cc3cccc4c3ccn4CC(=O)N3CCO[C@H](CN(C)C)C3)C2=O)ccc1OC [SC0177] | 309 (≈ 192 µg/mL) | 1.3 | – | – | 4.7 | –
COc1cc(CC(N)=O)ccc1CN1CC(C)CN(c2ccc(OC)c(OCCCC3CC3)c2)C1=O (centres unmarked) [SC0179] | – | – | – | – | 4.9 | 0.88
CCCCCOc1cc(N2CC(C)CN(Cc3ccc(CC(=O)N4CCCOCC4)cc3OC)C2=O)ccc1OC (centres unmarked) [SC0186] | – | – | – | – | 5.8 | 1.85
CCCCCOc1cc(N2CC(CO)CN(Cc3ccc(CC(=O)N4CCCOCC4)cc3OC)C2=O)ccc1OC (centres unmarked) [SC0190] | – | – | – | – | 7.1 | 2.8
